Experimental data as given in patent publication US12357695B2, “Peptides and nanoparticles for intracellular delivery of molecules” (AADIGEN, LLC, priority 2019, dated 2025).
Square brackets hold non-standard residues; d marks the D form. Ends that are not written are not given here. Stearyl = stearyl group covalently linked to the N-terminus; Aun = NCCCCCCCCCCC(=O)O; βAla = NCCC(=O)O

What was measured:
[1] = tested on: 293T cells; experiment: Cellular delivery of pGL4 plasmid DNA expressing Luciferase, luciferase expression at 72 hrs; assay type: cell-based; conditions: for reduction of ADGN-100 efficiency by modification / luciferase expression: 0.15 μg pGL4 plasmid; for reduction of ADGN-100 efficiency by modification: absence of serum or heparan sulfate; for reduction of efficiency / luciferase expression in the presence of serum: complexes incubated 3 hrs in 25% serum prior transfection; for reduction of efficiency / luciferase expression in the presence of serum / reduction of efficiency / luciferase expression in heparan sulfate: pGL4 plasmid; for reduction of efficiency / luciferase expression in heparan sulfate: complexes incubated 3 hrs with heparan sulfate prior transfection
Experimental: FIGS. 2A-2C show luciferase expression in 293T cells treated with ADGN-peptide/pGL4 plasmid DNA complexes. 293T cells cultured in 48 well plates were transfected with ADGN-peptide nanoparticles. ADGN-100, ADGN-106, ADGN-100RI, ADGN-106RI, ADGN-100 Stearyl, ADGN-Hydro1, ADGN-Hydro2, ADGN-Hydro3, ADGN-Hydro4, ADGN-Hydro5, and ADGN-Hydro6 containing 0.17 μg pGL4 plasmid DNA were formed in sterile water, diluted in sterile water containing 5% Sucrose. ADGN-peptide nanoparticles were evaluated prior (FIG. 2A) and after filtration with 0.45 μm PES filters (FIG. 2B). FIG. 2C impact of peGylated ADGN-100 on the transfection efficiency. pGL4 luc plasmid (0.15 μg) were associated to ADGN-100 solution containing 5 to 50% of ADGN-100-PEG or to ADGN-100PEG. ADGN/pGL4 plasmid DNA complexes were incubated for 3 hrs in the presence of either 25% serum or heparan sulfate prior transfection. Luciferase expression was monitored 72 hours post transfection and results were reported as RLU (luminescence):mg of protein.
(§1) Complex formation with plasmid DNA. The following protocols were used for the transfection of 2-5 106 Cells or Cells at confluency of about 70-80% cultured in 24 well plates. ADGN peptide/plasmid DNA pGL4 particles were prepared at a 20:1 molar ratio of ADGN-Peptide/pGL4. using (0.2 μg). PGL4 plasmid (0.15 μg) was diluted in 20 μl of sterile water (GIBCO) at room temperature. 10 μl Final Peptide Solution was added to obtain a total volume of 20 μl. The volume was adjusted to 50 μl with sterile water and was mixed gently with vortex 1 min low speed and incubated 30 min at room temperature. Then the volume was made up to 100 μl by adding sterile water containing 5% sucrose, and the solution was mixed gently with vortex 1 min low speed and incubate 5 min at 37° C. and then was proceeded to cell transfection.
Transfection protocol. Protocol is reported for 24 well plate format. Cells were cultured in Dulbecco's Modified Eagle's Medium (DMEM), supplemented with 2 mM glutamine, 1% antibiotics (streptomycin 10,000 μg/mL, penicillin, 10,000 IU/mL) and 10% (w/v) foetal calf serum (FCS), at 37° C. in a humidified atmosphere containing 5% CO2. 24 well plates seeded with 150,000 cells the day prior to transfection were grown to 50-60% confluence and set up to be at about 70% confluences at the time of transfection. Before transfection, cells were washed twice with DMEM. Cells were then overlaid with 0.1 ml of ADGN-peptide/cargo complex solution containing 0.25 μg mRNA, 0.15 μg plasmid DNA or 10-25 nM siRNA, mixed gently, and incubated for 10 min at 37° C. 0.2 mL of fresh DMEM, were added and cells were incubated for 20 min at 37° C. 1 mL of complete DMEM containing 15% FCS were then added in order to reach a final FCS concentration of 10%, without removing the overlay of ADGN-peptide/cargo complexes. Cells were returned to the incubator (37° C., 5% CO2) and 72 hrs post transfection.
ADGN-peptides were evaluated for cellular delivery of pGL4 plasmid DNA expressing Luciferase in 293T cells. Luc pGL4 plasmid (0.15 μg) in sterile water (GIBCO) were mixed with ADGN-100, ADGN-100RI, ADGN-106, ADGN-106RI, ADGN-100 Stearyl, ADGN-100Hydro1, ADGN-100Hydro2, ADGN-100Hydro4, ADGN-100Hydro3, ADGN-100Hydro5 and ADGN-100Hydro6. ADGN-peptide/mRNA complexes were filtered with 0.45 μm PES filter. In order to evaluate the stability of the ADGN/pGL4 plasmid complexes in high serum and cell culture conditions, the complexes were incubated for 3 hrs in the presence of either 25% serum or heparan sulfate prior transfection, then 293T cells were transfected and Luciferase expression was monitored at 72 hrs.

[2] = tested on: mice; experiment: In vivo delivery of Luciferase mRNA, intramuscular administration, bioluminescence imaging; conditions: IM, Luc mRNA
Experimental: FIGS. 5A-5B show the potency of ADGN-peptide variants for in vivo delivery of Luciferase mRNA via intramuscular administration in mice. ADGN-peptide/luc mRNA particles containing 2.5 μg mRNA were formed in sterile water, and then diluted in 5% sucrose. Mice received […] injection o 25 μl ADGN-peptide/mRNA complexes. mRNA LUC expression was monitored by bioluminescence imaging after 12 h, 24 h and 48h (A). FIG. 5B show bioluminescence imaging at 24 hr in control and treated groups.
Stable ADGN-peptides/mRNA were evaluated for in vivo delivery of Luciferase mRNA via intravenous and intramuscular administrations. Animals were treated with single dose of 5 moU modified Luc mRNA of 5 μg. 5 moU modified Luc mRNA (5 μg) in sterile water (GIBCO) were mixed with ADGN peptide (sterile water), volume for each sample was adjusted to 100 μl, with sterile water containing 5% Sucrose. Samples were mixed gently with vortex for 1 minute at low speed and incubated for 30 min at room temperature. Samples were filtered on 0.45 μm PES filters prior administration. For IV administration Mice received 100 μl intravenous (IV) injection of either ADGN-106/mRNA, ADGN-100/mRNA, ADGN-106RI/mRNA, ADGN-100-stearyl/mRNA, ADGN-100Hydro1/mRNA, ADGN-100Hydro2 or ADGN/mRNA complexes containing 10% of ADGN-100PEG (3 animals per group). As control, mice from group 3 (2 animals per group) received IV injection of 100 μl of naked 5 moU modified Luc mRNA (5 μg). For IM administration, mice received 25 μl (5 μg mRNA) IV injection of either ADGN-100/mRNA, ADGN-106/mRNA, ADGN-106RI/mRNA or ADGN/mRNA complexes containing 10% or 20% of ADGN-100PEG (2 animals per group). As control, mice from group 3 (2 animals per group) received IV injection of 25 μl of naked 5 moU modified Luc mRNA (5 μg).
mRNA Luc expression was monitored by bioluminescence. Bioluminescence imaging was performed after 12, 24, 48 and 72 hrs. Mice received an i.p. injection of 150 μg/g luciferin for noninvasive bioluminescence imaging (IVIS Kinetic; PerkinElmer, Waltham, MA, USA).

[3] = DLS particle size and level of aggregation of ADGN-peptide/pGL4 plasmid DNA complexes; assay type: physicochemical; conditions: pGL4 5.6 kb plasmid
Experimental: as §1
The ability of the different ADGN-peptides to form stable nanoparticles with DNA pGL4 a 5.6KpB plasmid expression Luciferase was analyzed. The particle sizes and level of aggregation were measured on DLS NanoZS (Malvern Ltd). The mean size and the polydispersity of the ADGN/plasmid DNA complexes were determined at 25° C. for 3 minute per measurement. In order to remove large particles, ADGN/plasmid DNA complexed were filtered using either PES or PVDF 0.45 μm filters. Data are shown in FIG. 10 for a mean of 3 separate experiments.

With “Ac-GYVS-Aun-KWRSALWRWRLWRVRSWSR-NH2 (Ac-GYVS[Aun]KWRSALWRWRLWRVRSWSR-NH2; SMILES CC(=O)NCC(=O)N[C@@H](Cc1ccc(O)cc1)C(=O)N[C@H](C(=O)N[C@@H](CO)C(=O)NCCCCCCCCCCC(=O)N[C@@H](CCCCN)C(=O)N[C@@H](Cc1c[nH]c2ccccc12)C(=O)N[C@@H](CCCNC(=N)N)C(=O)N[C@@H](CO)C(=O)N[C@@H](C)C(=O)N[C@@H](CC(C)C)C(=O)N[C@@H](Cc1c[nH]c2ccccc12)C(=O)N[C@@H](CCCNC(=N)N)C(=O)N[C@@H](Cc1c[nH]c2ccccc12)C(=O)N[C@@H](CCCNC(=N)N)C(=O)N[C@@H](CC(C)C)C(=O)N[C@@H](Cc1c[nH]c2ccccc12)C(=O)N[C@@H](CCCNC(=N)N)C(=O)N[C@H](C(=O)N[C@@H](CCCNC(=N)N)C(=O)N[C@@H](CO)C(=O)N[C@@H](Cc1c[nH]c2ccccc12)C(=O)N[C@@H](CO)C(=O)N[C@@H](CCCNC(=N)N)C(N)=O)C(C)C)C(C)C) [ADGN-100 hydro-6]” as the substance, how does the “reduction of ADGN-100 efficiency by modification” value (“reduction of ADGN-100 efficiency” for short) [1] read?
The value was “do not affected”.

With “βAKWRSAGWRWRLW RVRSWSR (AKWRSAGWRWRLWRVRSWSR; N-terminal beta-alanine; VARIANT 1 beta-A) [ADGN-100]” as the substance, how does the luciferase expression [2] read?
The luciferase expression was “no significant expression”.

And the luciferase expression [1]?
Its luciferase expression is “high level of luciferase expression”.

What about the “reduction of efficiency / luciferase expression in the presence of serum” value [1] of the same substance?
The value was 90%.

And the “reduction of efficiency / luciferase expression in heparan sulfate” value [1]?
The value was 50%.

For “rswsrvrwlrwrwgasrwk ([dR][dS][dW][dS][dR][dV][dR][dW][dL][dR][dW][dR][dW]G[dA][dS][dR][dW][dK]; also: retro-inverso) [ADGN-100-RI]”, which “ability to form stable nanoparticles/complex with plasmid DNA” value [3] is on record?
Its value is “did not modifie the ability of the peptide to form stable complex with plasmid DNA”.

And the “reduction of ADGN-100 efficiency” value [1]?
Its value is “do not affected”.

And the “reduction of efficiency / luciferase expression in the presence of serum” value [1]?
The value was 25%.

And the “reduction of efficiency / luciferase expression in heparan sulfate” value [1]?
Its value is “less than 10%”.

With “akwllrwlsrwlrwlarwlr ([dA][dK][dW][dL][dL][dR][dW][dL][dS][dR][dW][dL][dR][dW][dL][dA][dR][dW][dL][dR]; also: retro-inverso) [ADGN-106-RI]” as the substance, how does the “increase of luciferase expression in the muscle / efficiency relative to ADGN-106” value [2] read?
The value was 6 fold.

What about the luciferase expression [2] of the same substance?
The luciferase expression was “mediated Luciferase expression following intramuscular (IM) administration”.

What about the “ability to form stable nanoparticles/complex with plasmid DNA” value [3] of the same substance?
Its value is “did not improve the potency of ADGN-106 to form stable particle with plasmid”.

And the luciferase expression [1]?
The luciferase expression was “poor luciferase expression”.

What does the source list for “βALWRALWRLWRSLWRLLWKA ([βAla]LWRALWRLWRSLWRLLWKA) [ADGN-106]”?
luciferase expression [2]: mediated Luciferase expression following intramuscular (IM) administration; ability to form stable nanoparticles/complex with plasmid DNA [3]: large size and a the poor stability; luciferase expression [1]: poor luciferase expression

Which results are given for “Ac-GYVS-(G)4-KWRSALWRWRLWRVRSWSR-NH2 (Ac-GYVSGGGGKWRSALWRWRLWRVRSWSR-NH2) [ADGN-100 hydro-2]”?
reduction of efficiency / luciferase expression in the presence of serum [1]: do not significantly improved transfection; reduction of efficiency / luciferase expression in heparan sulfate [1]: do not significantly improved transfection

For “Stearyl-βA-KWRSALWRWRLWRVRSWSR-NH2 (Stearyl-[βAla]KWRSALWRWRLWRVRSWSR-NH2; not fully specified; printed as Stearyl-βA-KWRSALWRWRLWRVRSWSR-NH2) [ADGN-100 Stearyl]”, which “reduction of ADGN-100 efficiency” value [1] is on record?
Its value is “do not affected”.
